For 60 molecules, IC50 results are on record in patent US8288371B2, “Ortho pyrrolidine, benzyl-substituted heterocycle CCR1 antagonists for autoimmune diseases and inflammation” (Pharmacopeia, LLC, priority 2007, dated 2012).

pIC50: −log10 of the molar value. Bounds are passed on as bounds.

The test deals with T1, human CCR1 (Homo sapiens, UniProt P32246).
T1 sequence (P32246 1-355): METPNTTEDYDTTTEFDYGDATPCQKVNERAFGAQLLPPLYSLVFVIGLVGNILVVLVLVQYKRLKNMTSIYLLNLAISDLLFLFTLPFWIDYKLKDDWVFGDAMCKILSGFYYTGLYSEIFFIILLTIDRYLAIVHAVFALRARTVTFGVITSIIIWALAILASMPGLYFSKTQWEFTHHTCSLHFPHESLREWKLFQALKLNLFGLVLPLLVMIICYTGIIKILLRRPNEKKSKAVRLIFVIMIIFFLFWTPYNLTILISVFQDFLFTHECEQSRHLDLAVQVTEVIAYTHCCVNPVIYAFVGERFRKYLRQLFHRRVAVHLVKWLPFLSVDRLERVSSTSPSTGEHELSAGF
The test is described as follows: CCR1 binding protocol (SPA, [125I]-MIP-1α displacement). Particulars: cell membrane expressing human CCR1, 0.1 nM [125I]-MIP-1α, 4 hours at ambient temperature; read-out: Relative potency (IC50). Summed up: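 Displacement of 0.1 nM [125I]-MIP-1α (final) from membranes expressing human CCR1 was measured by scintillation proximity after 4 h at ambient temperature. Conditions: pH 7.4 Tris buffer with 0.1% BSA and MnCl, and 0.5 μg membrane per well. Compounds were tested as a 10-step ½-log series from a 10 mM DMSO stock to derive IC50.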
The pIC50 is the negative decadic logarithm of the IC50, by convention in mol/L. For the molecule `Cc1nnc([C@H]2C[C@@H](O)CN2C(=O)NCc2ccc(Cl)cc2Cl)n1Cc1ccc(Cl)cc1` [Compound 442], the pIC50 was > 7.30.
The same measure for `Cc1nnc([C@H]2CCCN2C(=O)Nc2ccc(Cl)c(S(C)(=O)=O)c2)n1Cc1ccc(Cl)cc1` [Compound 443]: 6.30 to 7.30; for `Cc1nnc([C@H]2C[C@@H](O)CN2C(=O)NC2CCOc3cc(C#N)ccc32)n1Cc1ccc(Cl)cc1` (stereo partly drawn) [Compound 444]: 6.30 to 7.30; for `Cc1noc(C)c1NC(=O)N1C[C@@H](O)C[C@@H]1c1nnc(C)n1Cc1ccc(Cl)cc1` [Compound 445]: 6.30 to 7.30.
The same measure for `Cc1nnc([C@H]2C[C@@H](O)CN2C(=O)Nc2ccc(Cl)c(C(F)(F)F)c2)n1Cc1ccc(Cl)cc1` [Compound 446]: 6.30 to 7.30.
Next, `Cc1noc(C)c1NC(=O)N1C[C@H](O)C[C@@H]1c1nnc(C)n1Cc1ccc(Cl)cc1` [Compound 447]: 6.30 to 7.30; `O=C(Nc1ccc(Cl)c(C(F)(F)F)c1)N1CCC[C@@H]1c1ncnn1Cc1ccc(Cl)cc1` [Compound 448]: 6.30 to 7.30.
As to `Cc1nnc([C@H]2C[C@@H](O)CN2C(=O)Nc2ccc(F)c(C(F)(F)F)c2)n1Cc1ccc(Cl)cc1` [Compound 449], the pIC50 was 5.30 to 6.30.
`CC(=O)N1CCC(NC(=O)N2CCC[C@@H]2c2nnc(C)n2Cc2ccc(Cl)cc2)CC1` [Compound 450]: the pIC50 was 5.30 to 6.30.
The same measure for `Cc1nnc([C@H]2CCCN2C(=O)Nc2ccc(S(=O)(=O)N(C)C)cc2Cl)n1Cc1ccc(Cl)cc1` [Compound 451]: > 7.30; for `CNS(=O)(=O)c1ccc(NC(=O)N2CCC[C@@H]2c2nnc(C)n2Cc2ccc(Cl)cc2)c(Cl)c1` [Compound 452]: > 7.30; for `Cc1nnc([C@H]2CCCN2C(=O)Nc2cnc(C(F)(F)F)nc2)n1Cc1ccc(Cl)cc1` [Compound 453]: 6.30 to 7.30.
The same measure for `Cc1nnc([C@H]2CCCN2C(=O)Nc2ccc(C#N)cc2F)n1Cc1ccc(Cl)cc1` [Compound 454]: 6.30 to 7.30.
The same measure for `Cc1cc(C)c(S(=O)(=O)O)cc1NC(=O)N1CCC[C@@H]1c1nnc(C)n1Cc1ccc(Cl)cc1` [Compound 455]: 6.30 to 7.30; for `Cc1nnc([C@H]2CCCN2C(=O)Nc2ccc(S(=O)(=O)O)cc2Cl)n1Cc1ccc(Cl)cc1` [Compound 456]: 6.30 to 7.30; for `Cc1c(Cl)nc([C@H]2CCCN2C(=O)Nc2ccc(Cl)cc2F)n1Cc1ccc(Cl)cc1` [Compound 457]: 6.30 to 7.30.
As for `CC[C@@H](NC(=O)N1CCC[C@@H]1c1nnc(C)n1Cc1ccc(Cl)cc1)c1ccc(C(F)(F)F)nc1` [Compound 458], the pIC50 is > 7.30.
Next, `COCc1nnc([C@H]2CCCN2C(=O)N[C@H]2CCOc3cc(C(F)(F)F)ccc32)n1Cc1ccc(Cl)cc1` [Compound 459]: > 7.30; `Cc1nnc([C@H]2CCCN2C(=O)N[C@H](C)c2ccc(C(F)(F)F)nc2)n1Cc1ccc(Cl)cc1` [Compound 460]: > 7.30; `Cc1nnc([C@H]2CCCN2C(=O)Cc2cccc(C(F)(F)F)c2)n1Cc1ccc(Cl)cc1` [Compound 461]: 6.30 to 7.30.
The same measure for `COCc1nnc([C@H]2CCCN2C(=O)NCc2ccc(Cl)cc2Cl)n1Cc1ccc(Cl)cc1` [Compound 462]: 6.30 to 7.30.
The same measure for `COCc1nnc([C@H]2CCCN2C(=O)N[C@@H](C)c2ccc(Cl)cc2)n1Cc1ccc(Cl)cc1` [Compound 463]: 6.30 to 7.30.
With `Cc1nnc([C@H]2CCCN2C(=O)Nc2nnc(C(F)(F)F)s2)n1Cc1ccc(Cl)cc1` [Compound 464], the pIC50 was 5.30 to 6.30.
Next, `COCc1nnc([C@H]2CCCN2C(=O)Nc2ccc(Cl)cc2F)n1Cc1ccc(Cl)cc1` [Compound 465]: 5.30 to 6.30.
The same measure for `Cc1nc(C(F)(F)F)nc(C)c1NC(=O)N1CCC[C@@H]1c1nnc(C)n1Cc1ccc(Cl)cc1` [Compound 466]: > 7.30; for `CC[C@H](NC(=O)N1CCC[C@@H]1c1nnc(C)n1Cc1ccc(Cl)cc1)c1ccc(C(F)(F)F)nc1` [Compound 467]: > 7.30; for `Cc1nnc([C@H]2CCCN2C(=O)N[C@@H](C)c2ccc(C(F)(F)F)nc2)n1Cc1ccc(Cl)cc1` [Compound 468]: > 7.30.
Next, `Cc1cc(C)c(S(N)(=O)=O)cc1NC(=O)N1CCC[C@@H]1c1nnc(C)n1Cc1ccc(Cl)cc1` [Compound 469]: > 7.30; `Cc1nnc([C@H]2C[C@H](O)CN2C(=O)NCc2ccc(Cl)cc2Cl)n1Cc1ccc(Cl)cc1` [Compound 470]: > 7.30; `Cc1nnc([C@H]2C[C@H](O)CN2C(=O)NCc2ccc(C(F)(F)F)cc2)n1Cc1ccc(Cl)cc1` [Compound 471]: > 7.30.
Take `O=C(N[C@H]1CCOc2cc(C(F)(F)F)ccc21)N1C[C@H](O)C[C@@H]1c1nncn1Cc1ccc(Cl)cc1` [Compound 472]: the pIC50 is > 7.30.
The same measure for `Cc1nnc([C@H]2CCCN2C(=O)Nc2c(F)cc(F)cc2F)n1Cc1ccc(Cl)cc1` [Compound 473]: > 7.30; for `Cc1nnc([C@H]2C[C@H](O)CN2C(=O)N[C@@H](C)c2ccc(Cl)cc2)n1Cc1ccc(Cl)cc1` [Compound 474]: > 7.30; for `O=C(NCc1ccc(Cl)cc1Cl)N1C[C@H](O)C[C@@H]1c1nncn1Cc1ccc(Cl)cc1` [Compound 475]: 6.30 to 7.30.
Next, `O=C(NC(c1ccccc1)c1ccccc1)N1C[C@H](O)C[C@@H]1c1nncn1Cc1ccc(Cl)cc1` [Compound 476]: 6.30 to 7.30; `O=C(NC1(c2ccc(C(F)(F)F)cc2)CC1)N1C[C@H](O)C[C@@H]1c1nncn1Cc1ccc(Cl)cc1` [Compound 477]: 6.30 to 7.30; `CC(=O)O[C@@H]1C[C@H](c2nncn2Cc2ccc(Cl)cc2)N(C(=O)NC(c2ccccc2)c2ccccc2)C1` [Compound 478]: 6.30 to 7.30.
Next, `Cc1nnc([C@H]2CCCN2C(=O)C[C@H](C)c2ccccc2)n1Cc1ccc(Cl)cc1` [Compound 479]: 6.30 to 7.30; `O=C(Nc1ccc(Cl)cc1F)N1C[C@H](O)C[C@@H]1c1nncn1Cc1ccc(Cl)cc1` [Compound 480]: 6.30 to 7.30; `CC(=O)O[C@H]1C[C@H](c2nnc(C)n2Cc2ccc(Cl)cc2)N(C(=O)Nc2ccc(Cl)cc2F)C1` [Compound 481]: 5.30 to 6.30.
`Cc1nnc([C@H]2CCCN2C(=O)C[C@@H](C)c2ccccc2)n1Cc1ccc(Cl)cc1` [Compound 482]: the pIC50 is 5.30 to 6.30.
The same measure for `Cc1cc(C)c(S(=O)(=O)N(C)C)cc1NC(=O)N1CCC[C@@H]1c1nnc(C)n1Cc1ccc(Cl)cc1` [Compound 483]: > 7.30.
The same measure for `CNS(=O)(=O)c1cc(NC(=O)N2CCC[C@@H]2c2nnc(C)n2Cc2ccc(Cl)cc2)c(C)cc1C` [Compound 484]: > 7.30; for `CC(=O)O[C@@H]1C[C@H](c2ncnn2Cc2ccc(Cl)cc2)N(C(=O)Nc2ccc(Cl)cc2F)C1` [Compound 485]: 5.30 to 6.30.
The same measure for `Cc1nnc([C@H]2CCCN2C(=O)Nc2ccc(S(N)(=O)=O)cc2Cl)n1Cc1ccc(Cl)cc1` [Compound 486]: > 7.30; for `Cc1nnc([C@H]2CCCN2C(=O)Nc2ccc(Cl)c(C#N)c2)n1Cc1ccc(Cl)cc1` [Compound 487]: > 7.30.
In the case of `CC(=O)O[C@@H]1C[C@H](c2ncnn2Cc2ccc(Cl)cc2)N(C(=O)N[C@H]2CCOc3cc(C(F)(F)F)ccc32)C1` [Compound 488], the pIC50 is > 7.30.
For `NC(=O)c1nnc([C@H]2CCCN2C(=O)N[C@H]2CCOc3cc(C(F)(F)F)ccc32)n1Cc1ccc(Cl)cc1` [Compound 489], the pIC50 was 5.30 to 6.30.
The same measure for `NC(=O)c1nnc([C@H]2CCCN2C(=O)Nc2ccc(Cl)cc2F)n1Cc1ccc(Cl)cc1` [Compound 490]: 5.30 to 6.30; for `Cc1nnc([C@H]2C[C@H](O)CN2C(=O)Nc2ccc(C(F)(F)F)nc2Cl)n1Cc1ccc(Cl)cc1` [Compound 491]: > 7.30; for `Cc1nnc([C@H]2C[C@H](O)CN2C(=O)Nc2ccc(Cl)nc2Cl)n1Cc1ccc(Cl)cc1` [Compound 492]: 6.30 to 7.30.
Next, `Cc1nnc([C@H]2C[C@@H](O)CN2C(=O)Nc2ccc(C(F)(F)F)nc2Cl)n1Cc1ccc(Cl)cc1` [Compound 494]: 6.30 to 7.30; `CC[C@@H](NC(=O)N1C[C@@H](O)C[C@@H]1c1nnc(C)n1Cc1ccc(Cl)cc1)c1ccc(C)o1` [Compound 495]: 6.30 to 7.30; `CC(=O)O[C@@H]1C[C@H](c2nnc(C)n2Cc2ccc(Cl)cc2)N(C(=O)Nc2ccc(C(F)(F)F)nc2Cl)C1` [Compound 496]: 6.30 to 7.30.
The same measure for `Cc1nnc([C@H]2CCCN2C(=O)Cc2cccc(Cl)c2)n1Cc1ccc(Cl)cc1` [Compound 497]: 6.30 to 7.30.
For the molecule `Cc1nnc([C@H]2C[C@@H](O)CN2C(=O)Nc2ccc(Cl)nc2Cl)n1Cc1ccc(Cl)cc1` [Compound 498], the pIC50 is 6.30 to 7.30.
Next, `Cc1nnc([C@H]2C[C@H](O)CN2C(=O)Cc2cccc(C(F)(F)F)c2)n1Cc1ccc(Cl)cc1` [Compound 499]: 6.30 to 7.30; `CC(=O)O[C@@H]1C[C@H](c2nnc(C)n2Cc2ccc(Cl)cc2)N(C(=O)Nc2ccc(Cl)nc2Cl)C1` [Compound 500]: 6.30 to 7.30.
Take `CC[C@@H](NC(=O)N1C[C@H](O)C[C@@H]1c1nnc(C)n1Cc1ccc(Cl)cc1)c1ccc(C)o1` [Compound 501]: the pIC50 is 6.30 to 7.30.
As to `Cc1nnc([C@H]2C[C@@H](O)CN2C(=O)Cc2cccc(C(F)(F)F)c2)n1Cc1ccc(Cl)cc1` [Compound 502], the negative logarithm of the IC50 (pIC50) was 6.30 to 7.30.
